Results as given in patent US6153415A, “Method for producing amide compounds using a nitrile hydratase from a thermophilic bacillus” (priority 1999, dated 2000).

T1: BR449 nitrile hydratase (Bacillus sp. BR449, UniProt Q9L541+Q9L542)
T1 construct: alpha 214 aa, beta 229 aa
T1 sequence (Q9L541 1-214): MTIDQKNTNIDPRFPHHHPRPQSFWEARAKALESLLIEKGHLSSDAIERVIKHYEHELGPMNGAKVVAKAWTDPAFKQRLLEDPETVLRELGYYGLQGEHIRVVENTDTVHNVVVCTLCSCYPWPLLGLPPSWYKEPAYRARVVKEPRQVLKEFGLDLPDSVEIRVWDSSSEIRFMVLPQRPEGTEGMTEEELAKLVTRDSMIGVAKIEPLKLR
T1 sequence (Q9L542 1-229): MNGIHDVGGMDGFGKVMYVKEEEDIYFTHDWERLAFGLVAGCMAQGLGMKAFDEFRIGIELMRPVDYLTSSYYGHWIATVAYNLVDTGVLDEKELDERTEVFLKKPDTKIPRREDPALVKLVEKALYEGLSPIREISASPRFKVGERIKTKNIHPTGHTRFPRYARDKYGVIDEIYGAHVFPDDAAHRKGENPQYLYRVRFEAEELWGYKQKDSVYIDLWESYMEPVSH

T2: hydratase of BR449 (Bacillus sp. BR449, UniProt Q9L541+Q9L542)
T2 construct: alpha 214 aa, beta 229 aa
T2 sequence (Q9L541 1-214): T1 sequence (Q9L541 1-214)
T2 sequence (Q9L542 1-229): T1 sequence (Q9L542 1-229)

B1: BR449 nitrile hydratase: cobalt-containing nitrile hydratase of Bacillus sp. BR449, alpha subunit SEQ ID NO:9, beta subunit SEQ ID NO:11 (protein)
alpha: T1 sequence (Q9L541 1-214)
beta: T1 sequence (Q9L542 1-229)

How the values were obtained:
BR449 nitrile hydratase = biological target: T1, BR449 nitrile hydratase; assay: Effect of additions during growth on nitrile hydratase activity of BR449; format: cell-based; conditions: for Nitrile hydratase Specific Activity: BR449 grown with divalent metal salt 20 mg/l
Method: (§1) Bacillus sp. BR449 (ATCC 202119) was grown in OP medium at pH 7.2 which contained per liter: KH2 PO4, 1 g; K2 HPO4, 0.5 g; yeast extract, 1 g; malt extract, 1 g; peptone 2 g; glycerol, 3 g; casamino acids, 0.1 g. The isolate was grown at 60° C. using turbidity to monitor culture density. Divalent metal salts were added to the growth medium where indicated in concentrations of 20 mg/l.
(§2) Nitrile hydratase activity was measured using whole cells in assays containing 20 mg (dry wt) cells, in 1 ml 0.5 M acrylonitrile and potassium phosphate buffer, containing 0.5 M acrylonitrile, pH 7.5. The reaction mixture was incubated in a water bath at 50° C. with shaking for 10 minutes, and the reaction stopped by addition of 0.2 ml 2 N HCl. Acrylamide formation was measured using HPLC by injection into a Novapak C-18 reverse phase column and eluted with 1:12 acetonitrile:5mM potassium phosphate buffer, pH 2.5. Peaks were identified at 200 nm with a Waters (Newton, Mass.) variable wavelength detector and analyzed with reference to chemical standards. One unit of nitrile hydratase activity is defined as the formation of one μmole acrylamide per minute. Amidase activity was measured in the same manner using 0.5 M acrylamide as substrate by measurement of acrylic acid formation.
(§3) Divalent metal ions were added during growth of isolate BR449 to provide indications of metals stimulatory to nitrile hydratase production.

Bacillus sp. BR449 = assay: Effect of metal ions on growth (total cells) of BR449; format: cell-based; conditions: divalent metal salt 20 mg/l in growth medium
Method: as §1

amidase = assay: Effect of metal ions during growth on amidase activity of BR449; format: cell-based, Bacillus sp. BR449; conditions: BR449 grown with divalent metal salt 20 mg/l
Method: as §1, §2, §3

hydratase of BR449 = biological target: T2, hydratase of BR449; assay: Nitrile hydratase activity with varied acrylonitrile concentration (substrate inhibition); format: biochemical; conditions: 10% acrylonitrile, assay at 50° C.
Method: as §2, with “Nitrile hydratase activity was measured using whole cells in assays containing 20 mg (dry wt) cells, in 1 ml 0.5 M acrylonitrile and potassium phosphate buffer, containing 0.5 M acrylonitrile, pH 7.5.” left out

[1] = Enzyme stability study, whole cells incubated in buffer at varied temperatures; format: physicochemical, Bacillus sp. BR449; conditions: two hour incubations in buffer, assay at 50° C.
Method: For studies of nitrile hydratase stability, whole cells of BR449 were incubated at varied temperatures in 50 mM potassium phosphate buffer, pH 7.5, following which the nitrile hydratase assay was carried out at 50° C.

Molecule	Nitrile hydratase Specific Activity (BR449 nitrile hydratase) [U/mg]	Total Cells (Bacillus sp. BR449)	Amidase Specific Activity (amidase) [U/mg]	Induction of hydratase activity (BR449 nitrile hydratase; addition during BR449 growth)	inhibition of BR449 hydratase (substrate inhibition) (hydratase of BR449) [%]	temperature to which the enzyme is stable [1] [°C]
[Co+2] [Co^2+]	71.5	225 mt/1, dry weight	9.7			
C=CC#N [acrylonitrile]				without effect	47	
[Cu+2] [Cu^2+]	1.9	90 mt/1, dry weight	1.5			
[Fe+2] [Fe^2+]	4.3	490 mt/1, dry weight	2.3			
[Mn+2] [Mn^2+]	2.2	65 mt/1, dry weight	2.1			
[Ni+2] [Ni^2+]	6.8	80 mt/1, dry weight	3.4			
B1						≤ 60
